Measured values published in US20250154127A1, “BICYCLIC HETEROARYL COMPOUNDS AND USES THEREOF” (ETERN BIOPHARMA (SHANGHAI) CO., LTD., priority 2022, published 2025).

Key:
[1] = target: TEAD1(210-426) binding to YAP(50-100) (Homo sapiens, UniProt P28347); experiment: TR-FRET Assay for TEAD1(210-426) Binding to YAP(50-100); details: His-TEAD 10 nM, YAP-Biotin peptide 50 nM
Method in brief: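 10 nM His-TEAD1 preincubated 30 min at room temperature with compound (3-fold dilutions, 12 points, 1% DMSO), then 50 nM biotin-YAP peptide added.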

MSTO-211H cells = experiment: Proliferation Assay (CellTiter-Glo Luminescent Cell Viability Assay); type: cell-based; details: Homo sapiens, 96 hours treatment
Method in brief: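 MSTO-211H cells, 1,500/well in RPMI 1640 with 10% FBS, plated overnight, then treated 96 h with 9-point 3-fold compound series in duplicate (DMSO below 0.5%). Viability by CellTiter-Glo luminescence; inhibition relative to DMSO wells, IC50 by four-parameter fit.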

TEAD1(210-426) binding to YAP(50-100), sequence (P28347 209-426): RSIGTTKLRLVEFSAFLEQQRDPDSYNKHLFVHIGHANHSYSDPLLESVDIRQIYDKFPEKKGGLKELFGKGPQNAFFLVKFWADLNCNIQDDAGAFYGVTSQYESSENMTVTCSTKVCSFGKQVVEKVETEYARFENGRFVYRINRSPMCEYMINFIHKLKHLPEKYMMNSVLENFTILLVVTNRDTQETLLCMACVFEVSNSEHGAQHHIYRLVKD

Structure (SMILES)	IC50 [1]	IC50 (MSTO-211H cells)
CNc1nccc(Cn2ccc(-c3nn(-c4ccc(C(F)(F)F)cc4)c4nccnc34)cc2=O)n1 [Compound 99, 1-((2-(methylamino)pyrimidin-4-yl)methyl)-4-(1-(4-(trifluoromethyl)phenyl)-1H-pyrazolo[3,4-b]pyrazin-3-yl)pyridin-2(1H)-one]	≤ 100 nM	≤ 1000 nM
O=c1cc(-c2nn(-c3ccc(C(F)(F)F)cc3)c3nccnc23)ccn1Cc1nccc(O)n1 [Compound 100, 1-((4-hydroxypyrimidin-2-yl)methyl)-4-(1-(4-(trifluoromethyl)phenyl)-1H-pyrazolo[3,4-b]pyrazin-3-yl)pyridin-2(1H)-one]	≤ 100 nM	≤ 1000 nM
CNc1ccnc(Cn2ccc(-c3nn(-c4ccc(C(F)(F)F)cc4)c4nccnc34)cc2=O)n1 [Compound 104, 1-((4-(methylamino)pyrimidin-2-yl)methyl)-4-(1-(4-(trifluoromethyl)phenyl)-1H-pyrazolo[3,4-b]pyrazin-3-yl)pyridin-2(1H)-one]	100 to 1000 nM	≤ 1000 nM
COc1ccnc(Cn2ccc(-c3nn(-c4ccc(C(F)(F)F)cc4)c4nccnc34)cc2=O)n1 [Compound 105, 1-((4-methoxypyrimidin-2-yl)methyl)-4-(1-(4-(trifluoromethyl)phenyl)-1H-pyrazolo[3,4-b]pyrazin-3-yl)pyridin-2(1H)-one]	100 to 1000 nM	≤ 1000 nM
CN(CCO)c1nccc(Cn2ccc(-c3nn(-c4ccc(C(F)(F)F)cc4)c4nccnc34)cc2=O)n1 [Compound 106, 1-((2-((2-hydroxyethyl)(methyl)amino)pyrimidin-4-yl)methyl)-4-(1-(4-(trifluoromethyl)phenyl)-1H-pyrazolo[3,4-b]pyrazin-3-yl)pyridin-2(1H)-one]	≤ 100 nM	≤ 1000 nM
CN(CCO)c1ccnc(Cn2ccc(-c3nn(-c4ccc(C(F)(F)F)cc4)c4nccnc34)cc2=O)n1 [Compound 107, 1-((4-((2-hydroxyethyl)(methyl)amino)pyrimidin-2-yl)methyl)-4-(1-(4-(trifluoromethyl)phenyl)-1H-pyrazolo[3,4-b]pyrazin-3-yl)pyridin-2(1H)-one]	≤ 100 nM	≤ 1000 nM
Nc1nccc(Cn2ccc(-c3nn(-c4ccc(C(F)(F)F)cc4)c4ncccc34)cc2=O)n1 [Compound 109, 1-((2-aminopyrimidin-4-yl)methyl)-4-(1-(4-(trifluoromethyl)phenyl)-1H-pyrazolo[3,4-b]pyridin-3-yl)pyridin-2(1H)-one]	≤ 100 nM	≤ 1000 nM
Nc1ccnc(Cn2ccc(-c3nn(-c4ccc(C(F)(F)F)cc4)c4ncccc34)cc2=O)n1 [Compound 110, 1-((4-aminopyrimidin-2-yl)methyl)-4-(1-(4-(trifluoromethyl)phenyl)-1H-pyrazolo[3,4-b]pyridin-3-yl)pyridin-2(1H)-one]	≤ 100 nM	≤ 1000 nM
Cn1ccc(Cn2ccc(-c3nn(-c4ccc(C(F)(F)F)cc4)c4ncccc34)cc2=O)n1 [Compound 111, 1-((1-methyl-1H-pyrazol-3-yl)methyl)-4-(1-(4-(trifluoromethyl)phenyl)-1H-pyrazolo[3,4-b]pyridin-3-yl)pyridin-2(1H)-one]	≤ 100 nM	≤ 1000 nM
O=c1cc(-c2nn(-c3ccc(C(F)(F)F)cc3)c3ncccc23)ccn1Cc1ncccn1 [Compound 115, 1-(pyrimidin-2-ylmethyl)-4-(1-(4-(trifluoromethyl)phenyl)-1H-pyrazolo[3,4-b]pyridin-3-yl)pyridin-2(1H)-one]	≤ 100 nM	≤ 1000 nM
Nc1nccc(Cn2ccc(-n3nc(-c4ccc(C(F)(F)F)cc4)c4ncccc43)cc2=O)n1 [Compound 118, 1-((2-aminopyrimidin-4-yl)methyl)-4-(3-(4-(trifluoromethyl)phenyl)-1H-pyrazolo[4,3-b]pyridin-1-yl)pyridin-2(1H)-one]	≤ 100 nM	≤ 1000 nM
O=c1cc(-n2nc(-c3ccc(C(F)(F)F)cc3)c3ncccc32)ccn1Cc1cccnc1 [Compound 120, 1-(pyridin-3-ylmethyl)-4-(3-(4-(trifluoromethyl)phenyl)-1H-pyrazolo[4,3-b]pyridin-1-yl)pyridin-2(1H)-one]	≤ 100 nM	≤ 1000 nM
CNc1ccnc(Cn2ccc(-c3nc(-c4ccc(C(F)(F)F)cc4)n4ccccc34)cc2=O)n1 [Compound 125, 1-((4-(methylamino)pyrimidin-2-yl)methyl)-4-(3-(4-(trifluoromethyl)phenyl)imidazo[1,5-a]pyridin-1-yl)pyridin-2(1H)-one]	≤ 100 nM	≤ 1000 nM
CNc1nccc(Cn2ccc(-c3nc(-c4ccc(C(F)(F)F)cc4)n4ccccc34)cc2=O)n1 [Compound 127, 1-((2-(methylamino)pyrimidin-4-yl)methyl)-4-(3-(4-(trifluoromethyl)phenyl)imidazo[1,5-a]pyridin-1-yl)pyridin-2(1H)-one]	≤ 100 nM	≤ 1000 nM

Second part, led by results:

IC50 [1]	Structure (SMILES)	IC50 (MSTO-211H cells)
≤ 100 nM	O=c1cc(-c2nn(-c3ccc(C(F)(F)F)cc3)c3ncccc23)ccn1Cc1nccc(O)n1 [Compound 101, 1-((4-hydroxypyrimidin-2-yl)methyl)-4-(1-(4-(trifluoromethyl)phenyl)-1H-pyrazolo[3,4-b]pyridin-3-yl)pyridin-2(1H)-one]	≤ 1000 nM
≤ 100 nM	O=c1cc(-c2nn(-c3ccc(C(F)(F)F)cc3)c3nccnc23)ccn1Cc1ccnc(NCCO)n1 [Compound 102, 1-((2-((2-hydroxyethyl)amino)pyrimidin-4-yl)methyl)-4-(1-(4-(trifluoromethyl)phenyl)-1H-pyrazolo[3,4-b]pyrazin-3-yl)pyridin-2(1H)-one]	≤ 1000 nM
≤ 100 nM	Nc1cc(Cn2ccc(-c3nn(-c4ccc(C(F)(F)F)cc4)c4ncccc34)cc2=O)ccn1 [Compound 112, 1-((2-aminopyridin-4-yl)methyl)-4-(1-(4-(trifluoromethyl)phenyl)-1H-pyrazolo[3,4-b]pyridin-3-yl)pyridin-2(1H)-one]	≤ 1000 nM
≤ 100 nM	Nc1ccnc(Cn2ccc(-n3nc(-c4ccc(C(F)(F)F)cc4)c4ncccc43)cc2=O)n1 [Compound 119, 1-((4-aminopyrimidin-2-yl)methyl)-4-(3-(4-(trifluoromethyl)phenyl)-1H-pyrazolo[4,3-b]pyridin-1-yl)pyridin-2(1H)-one]	≤ 1000 nM
≤ 100 nM	Nc1cc(Cn2ccc(-n3nc(-c4ccc(C(F)(F)F)cc4)c4ncccc43)cc2=O)ccn1 [Compound 121, 1-((2-aminopyridin-4-yl)methyl)-4-(3-(4-(trifluoromethyl)phenyl)-1H-pyrazolo[4,3-b]pyridin-1-yl)pyridin-2(1H)-one]	≤ 1000 nM
≤ 100 nM	O=c1cc(-c2nn(-c3ccc(C(F)(F)F)cc3)c3ncccc23)ccn1Cc1ccnc(OCCO)n1 [Compound 126, 1-((2-(2-hydroxyethoxy)pyrimidin-4-yl)methyl)-4-(1-(4-(trifluoromethyl)phenyl)-1H-pyrazolo[3,4-b]pyridin-3-yl)pyridin-2(1H)-one]	≤ 1000 nM
≤ 100 nM	CNc1nccc(Cn2ccc(-c3nn(-c4ccc(C(F)(F)F)cc4)c4c(F)cccc34)cc2=O)n1 [Compound 128, 4-(7-fluoro-1-(4-(trifluoromethyl)phenyl)-1H-indazol-3-yl)-1-((2-(methylamino)pyrimidin-4-yl)methyl)pyridin-2(1H)-one]	≤ 1000 nM
